In ChEMBL document CHEMBL1201862, “PubChem BioAssay data set” (2004):
Calls of active or inactive are those of the source.

Columns and labels:
[1] = toxicity to human HepG2 hepatoma cells – cell-based, plate reader, dry powder samples, cytotoxicity control, dose response (AID 1159569); format: functional;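 also: inhibitor potency with signal falling toward the positive control level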
[2] = P. falciparum Dd2 growth inhibitors, dose response, SYBR Green, cherry-picked samples (AID 1159567); format: functional, cell-based
[3] = Dd2 malaria parasite growth inhibition potency – SYBR Green, dry powder samples, dose response (AID 1159566); format: functional, cell-based;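 also: potency for growth inhibition with lower SYBR green DNA signal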
[4] = growth inhibition of yeast DHODH-expressing 3D7 parasites – SYBR Green, dry powder samples, dose response (AID 1159570); format: functional, cell-based;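 also: parasite growth measured after 72 hours of compound exposure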
[5] = growth inhibition of PfATP4-mutant resistant parasites – NITD609-resistant line, SYBR Green, dry powder, dose response (AID 1159571); format: functional, cell-based;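 also: parasites synchronized at ring stage by sorbitol before testing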
[6] = toxicity to human hepatoma HepG2 cells – cell-based, cherry-picked samples, cytotoxicity control, dose response (AID 1159577); format: functional
[7] = biological target: Kallikrein-7 (Homo sapiens, UniProt P49862); assay: Fluorescence Intensity-based biochemical primary high throughput dose response assay to identify activators of kallikrein-7 (K7) zymogen.
[8] = biological target: T1, Ubiquitin carboxyl-terminal hydrolase BAP1 (Homo sapiens, UniProt Q92560); assay: inhibition of BAP1 ubiquitin hydrolase activity – biochemical, dose response (AID 714); format: functional
T1 sequence (Q92560 whole entry): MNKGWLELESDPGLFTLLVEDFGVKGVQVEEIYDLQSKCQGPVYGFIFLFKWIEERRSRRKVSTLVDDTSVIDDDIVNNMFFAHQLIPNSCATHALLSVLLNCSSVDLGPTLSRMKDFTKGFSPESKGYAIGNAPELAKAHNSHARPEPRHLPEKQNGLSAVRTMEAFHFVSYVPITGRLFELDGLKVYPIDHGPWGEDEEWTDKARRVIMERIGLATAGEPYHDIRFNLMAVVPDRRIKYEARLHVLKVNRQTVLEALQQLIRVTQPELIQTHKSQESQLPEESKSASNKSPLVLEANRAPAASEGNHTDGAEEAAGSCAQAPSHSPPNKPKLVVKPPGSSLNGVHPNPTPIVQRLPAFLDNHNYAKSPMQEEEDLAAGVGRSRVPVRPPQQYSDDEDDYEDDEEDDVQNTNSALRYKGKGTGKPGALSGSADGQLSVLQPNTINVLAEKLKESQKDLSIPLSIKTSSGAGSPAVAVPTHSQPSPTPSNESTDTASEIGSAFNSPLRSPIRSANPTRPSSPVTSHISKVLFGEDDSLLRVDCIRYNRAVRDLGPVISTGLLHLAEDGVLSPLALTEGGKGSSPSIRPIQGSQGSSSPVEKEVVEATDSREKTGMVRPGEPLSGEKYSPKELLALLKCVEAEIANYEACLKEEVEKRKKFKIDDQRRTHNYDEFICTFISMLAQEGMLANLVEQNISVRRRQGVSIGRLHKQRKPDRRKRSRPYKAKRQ

Chain of Kallikrein-7 (P49862 whole entry): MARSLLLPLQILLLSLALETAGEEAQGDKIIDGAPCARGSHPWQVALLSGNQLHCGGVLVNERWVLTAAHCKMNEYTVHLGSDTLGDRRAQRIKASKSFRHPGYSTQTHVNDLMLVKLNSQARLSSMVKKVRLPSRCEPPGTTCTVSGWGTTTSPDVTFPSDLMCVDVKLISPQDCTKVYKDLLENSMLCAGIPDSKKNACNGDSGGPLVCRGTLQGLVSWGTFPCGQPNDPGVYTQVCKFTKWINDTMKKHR

Row | EC50 [7] | Structure (SMILES) | AC50 [1] | AC50 [2] | AC50 [3] | AC50 [4] | AC50 [5] | other results
1 |  | COc1ccc2c3c(n(C)c2c1)[C@H](CO)NCC31CCN(Cc2ccc(-c3ccccn3)cc2)CC1 | 20000 nM (active) | 322 nM (active) | 135 nM (active) | 265 nM (active) | 222 nM (active) | AC50 [6]: 20300 nM (active)
2 |  | COc1cccc(NC(=O)N(C)C[C@@H]2Oc3cc(C#Cc4ccccc4)ccc3S(=O)(=O)N([C@H](C)CO)C[C@@H]2C)c1 | > 100000 nM (inactive) | 1190 nM (active) | 539 nM (active) | 975 nM (active) | 740 nM (active) | 
3 | 49500 nM (inactive) | Cc1cc(C)n2cc(CSCc3ccccc3)nc2n1 |  |  |  |  |  | 
4 | > 69500 nM (inactive) | CCOc1ccc(-c2cc(C(=O)N3CCN(C)CC3)c3ccccc3n2)cc1 |  |  |  |  |  | 
5 |  | CCCCNC(=O)c1cnc2ccc(S(=O)(=O)Nc3ccc(OCC)cc3)cc2c1O |  |  |  |  |  | IC50 [8]: > 50000 nM (not active)
6 | 8070 nM (active) | CCOC(=O)CC(=O)CSc1nc(C)cc(-c2cccnc2)c1C#N |  |  |  |  |  | 
